The text below walks through data of patent US6972287B1, “Method of inhibiting amyloid protein aggregation and imaging amyloid deposits” (Pfizer Inc., priority 1999, dated 2005).

Several values for one entry are separate records, joined by “and”; a condition that tells them apart may be missing. Equal values may be shown once. Where a name gives a salt, the structure may show the parent alone. Bounds are passed on as bounds.

Holding throughout (type): biochemical
One assay addresses T1, Aβ (1-42) (Homo sapiens, UniProt P05067).
T1 construct: Required Aβ (1-42) (California Peptide) was dried from its hexafluoroisopropanol (HFIP) stock solution; purchased California Peptide
Description: BATYM assay (Aβ (1-42) aggregation, Thioflavin T fluorescence). The following applies: Aβ 1-42 final concentration 100 μM, 37° C., 1 day, letter = synthetic lot. How it is done: Required Aβ (1-42) (California Peptide) was dried from its hexafluoroisopropanol (HFIP) stock solution. The Aβ (1-42) was dissolved in dimethylsulfoxide (DMSO) and then mixed with phosphate buffered saline (PBS) (pH 7.4). The mixed Aβ (1-42) solution was filtered with a 0.2 μm Omnipore membrane syringe filter Millipore, Bedford, Mass.). The compound to be tested in DMSO (50 times concentrate) was put into each well (0.5 μL/well) of a 96-well plate. The Aβ (1-42) solution was added into each well (24.5 μL/well). The plate was centrifuged at 1,000 g for 5 minutes and incubated at 37° C. for 1 day (Aβ 1-42; final concentration 100 μM).
After incubation Thioflavin T (ThT) (30 μM) solution in glycine-NaOH buffer (pH 8.5, 50 mM) was added into each well (250 μL/well), fluorescence was measured (ex=440/20 nm, em=485/20 nm) using a fluorescence plate reader. The inhibitory activity was calculated as the reduction of fluorescence with the following formula: Inhibition (%)={(F(Aβ)−F(Aβ+compound)}/{F(Aβ)−[…]}×100
The IC50s were calculated by a curve fitting program using the following equation. The data were obtained from two different experiments in triplicate.
x=Concentration of tested compound (M),

In assay [1] the target is T2, Aβ(1-40) (Homo sapiens, UniProt P05067).
T2 construct: […]; purchased Bachem, Torrance, Calif
The experiment in a line: BASSR (Beta-Amyloid Self-Seeding Radioassay), inhibitors of self-seeded amyloid fibril growth. How it is done: BASSR (Beta-Amyloid Self-Seeding Radioassay)
(§1) An assay for inhibitors of self-seeded amyloid fibril growth
Assay Buffer—50 mM sodium phosphate, pH 7.5, 100 mM NaCl, 0.02% NaN3, 1 M urea (filter and store at 4° C.).
(§2) Typically, the solution should be stored until no lag phase is seen in the assay.
^125I-labeled Aβ(1-40)—150K-350K cpm/μL in 100% acetonitrile—0.1% trifluoroacetic acid (TFA)—1% β-mercaptoethanol (aliquots stored at −20° C.). ^125I-labeled Aβ(1-40) can be made in accordance with the procedure set forth by H. LeVine, III in Neurobiol. Aging, 16, 755, (1995), which is hereby incorporated by reference, or this reagent may be purchased from Amersham, Arlington Heights, Ill.
The following are the amounts of the components of the reaction mixture sufficient for 50 assay wells:
• 1) Prepare reaction mixture above by mixing components and storing on ice. • 2) Pipet 14.5 μL of reaction mixture into each of 50 wells on a polypropylene U-bottom 96-well microtiter plate on ice. (Costar 3794). • 3) Add 1.7 μL of diluted compound to be tested to each well in a column of eight, including solvent control. Serial 3-fold dilutions from 1 mM (100 μM final) in assay buffer−urea=7 dilutions+zero. Each 96-well plate can therefore accommodate 11 samples+1 Congo Red control (0.039-5 μM final in 2-fold steps). • 4) Seal the plate with aluminum film (Beckman 538619) and incubate for 10 minutes on ice. • 5) Raise the temperature to 37° C. and incubate for 3 to 5 hours (depending on the lot of the peptide). • 6) Remove the aluminum film and add 200 μL/well of ice cold assay buffer with urea, collecting the radiolabeled fibrils by vacuum filtration through 0.2 μm pore size GVWP filters in 96-well plates (Millipore MAGV N22, Bedford, Mass.). Determine the radioactivity of the filters using standard methods well-known to those skilled in the art. BASST (Beta-Amyloid Self-Seeding, Thioflavin T)

The next assay concerns the target T3, Aβ (1-40) peptide (Homo sapiens, UniProt P05067).
T3 construct: 10 μL 0.5 mg/mL Aβ (1-40) peptide in 20% HFIP
The experiment in a line: BAPA (Beta-Amyloid Peptide Aggregation, pH 6.0, filtration). To be noted: Aβ (1-40) 33 μM, pH 6.0, 2 to 4 hours at room temperature; replicate values; letter = synthetic lot. How it is done: Each 96-well plate can therefore accommodate 11 samples+1 Congo Red control (0.039-5 μM final in 2-fold steps). • 4) Seal the plate with aluminum film and incubate for 10 minutes on ice. • 5) Raise the temperature to 37° C. and incubate for 3 to 5 hours (depends on the lot of the peptide). • 6) Remove the aluminum film and add 250 μL/well of 5 μM thioflavin T (ThT) [T-3516, Sigma-Aldrich] in 50 mM glycine-NaOH, pH 8.5. […] The purpose of this assays is to provide a higher volume method of assaying the amount of beta amyloid aggregation using an endpoint assay based on filtration. In this assay, hexafluoroisopropanol (HFIP) is used to break down the initial amyloid peptide to a monomer state and use a concentration of 33 μM which is high enough so that aggregation will occur at pH 6.0 in several hours. Methods: […] Then, we incubate for 2 to 4 hours at room temperature. […] We wash the filter plate with 100 μL of the same phosphate buffer. Aggregation was detected on a Microbeta counter after impregnating the filters with Meltilex (1450-441) and is corrected for background.

The target of assay [2] is T2, Aβ(1-40). The experiment in a line: BASST (Beta-Amyloid Self-Seeding, Thioflavin T), inhibitors of self-seeded amyloid fibril growth. How it is done:
as §1
Assay Buffer—50 mM sodium phosphate, pH 7.5, 100 mM NaCl, 0.02% NaN3, 1 M urea (filter and store at 4° C.)
as §2
The following are the amounts of the components of the reaction mixture that result in each of the 50 assay wells:
• 1) Prepare the reaction mix above by mixing the components and storing on ice. • 2) Pipet 14.5 μL of reaction mixture into each of 50 wells of a polystyrene U-bottom 96-well microtiter plate (Corning 25881-96) on ice. • 3) Add 1.7 μL of diluted compound to be tested to each well in a column of eight, including solvent control. Serial 3-fold dilutions from 1 mM (100 μM final) in assay buffer−urea=7 dilutions+zero. Each 96-well plate can therefore accommodate 11 samples+1 Congo Red control (0.039-5 μM final in 2-fold steps). • 4) Seal the plate with aluminum film and incubate for 10 minutes on ice. • 5) Raise the temperature to 37° C. and incubate for 3 to 5 hours (depends on the lot of the peptide). • 6) Remove the aluminum film and add 250 μL/well of 5 μM thioflavin T (ThT) [T-3516, Sigma-Aldrich] in 50 mM glycine-NaOH, pH 8.5. Read fluorescence on a plate reader (ex=440 nm/20 nm; em=485 nm/20 nm) within 5 minutes. BAPA (Beta-Amyloid Peptide Aggregation)

Where [3] appears, read: 30 μM soluble Aβ(1-40) + 125I-labeled Aβ(1-40), 37° C., 3 to 5 hours, replicate values, letter = synthetic lot, ppt = precipitate, V-shaped = inhibition followed by precipitation.
The mark [4] stands for this setting: 30 μM soluble Aβ(1-40), 37° C., 3 to 5 hours, thioflavin T fluorescence, replicate values, letter = synthetic lot, read-out: BASST (IC50 = μM).

T1 sequence (P05067 672-713 limits assumed): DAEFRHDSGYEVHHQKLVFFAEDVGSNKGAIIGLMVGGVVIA
T3 sequence (P05067 672-711 limits assumed): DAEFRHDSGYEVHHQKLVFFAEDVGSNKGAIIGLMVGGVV
T2 sequence (P05067 672-711 limits assumed): as above

Consider “2-{4-[3-(3-Aminophenyl)propyl]phenylamino}benzoic acid [Example 23]”, for which the IC50 (usually the point on the concentration scale where inhibition reaches its midpoint) against Aβ (1-42) is more than 100 µM; on Aβ(1-40) [1], 20 µM; at Aβ (1-40) peptide, 17 µM; at Aβ(1-40) [2] (read-out: BASST (IC50 = μM)), 2 µM.
“2-{4-[5-(3,4-Dichloro-phenyl)pentyl]phenylamino}methoxy-5-nitrobenzoic acid [Example 14]”: the 50% inhibitory concentration (IC50) was 10.9 µM at Aβ (1-42); 18 µM and 8 µM and 6 µM and 7 µM on Aβ(1-40) [1] (setting [3]); more than 10 µM against Aβ (1-40) peptide; 1 µM on Aβ(1-40) [2] (setting [4]).
Consider `O=C(O)c1ccccc1Nc1ccc(CCc2ccc(Cl)c(Cl)c2)cc1` [Example 1, 2-{4-[2-(3,4-Dichlorophenyl)ethyl]phenylamino}-benzoic acid], for which the IC50 at Aβ (1-42) was > 60 µM and 50 µM and 58.8 µM and 57.8 µM; on Aβ(1-40) [1] (setting [3]) it was > 100 µM (5×) and 52 µM and 10 µM; against Aβ (1-40) peptide, > 60 µM and 11 µM and > 100 µM and 86 µM.
Take `O=C(O)c1ccccc1Nc1ccc(CCc2cc(O)c(O)c(O)c2)cc1` [Example 6, 2-{4-[2-(3,4,5-Trihydroxy-phenyl)-ethyl]phenylamino}benzoic acid]: the 50% inhibitory concentration (IC50) against Aβ (1-42) was 21.5 µM; on Aβ(1-40) [1] (setting [3]), 15 µM and 21 µM and 20 µM and 40 µM; against Aβ (1-40) peptide it was more than 60 µM; on Aβ(1-40) [2] (setting [4]) it was 4 µM and 1 µM and 3 µM.
On to `COc1cc(Nc2ccc(CCCc3ccc(Cl)c(Cl)c3)cc2)c(C(=O)O)cc1[N+](=O)[O-]` [Example 7], for which the IC50 on Aβ (1-42) was 8.83 µM; on Aβ(1-40) [1] (setting [3]), 18 µM and 13 µM and 12 µM and 20 µM; on Aβ (1-40) peptide, 39 µM; on Aβ(1-40) [2] (setting [4]), 2 µM.
For the compound `O=C(O)c1ccccc1Nc1ccc(CCCCc2ccc(Cl)c(Cl)c2)cc1` [Example 10, 2-{4-[4-(3,4-Dichlorophenyl)butyl]phenylamino}benzoic acid], the IC50 on Aβ (1-42) is 75.7 µM; at Aβ(1-40) [1] (setting [3]) it was 70 µM and 50 µM; against Aβ (1-40) peptide, 67 µM; at Aβ(1-40) [2] (setting [4]), 4 µM.
Consider `O=C(O)c1cc([N+](=O)[O-])ccc1Nc1ccc(CCCCc2ccc(Cl)c(Cl)c2)cc1` [Example 11, 2-{4-[4-(3,4-Dichloro-phenyl)-butyl]-phenylamino}-5-nitro-benzoic acid], for which the IC50 against Aβ (1-42) is 5.62 µM and 6.78 µM; on Aβ(1-40) [1] (setting [3]), 18 µM and 20 µM (2×) and > 100 µM (2×) and 21 µM and 30 µM; against Aβ (1-40) peptide it was 23 µM and 9 µM; on Aβ(1-40) [2] (setting [4]) it was 1 µM (3×) and 3 µM and 800 nM.
With `O=C(O)c1cc([N+](=O)[O-])cc([N+](=O)[O-])c1Nc1ccc(CCCCc2ccc(Cl)c(Cl)c2)cc1` [Example 12, 2-{4-[4-(3,4-Dichlorophenyl)butyl]phenylamino}-3,5-dinitrobenzoic acid], the half-inhibitory concentration (IC50) at Aβ (1-42) was 3.93 µM; on Aβ(1-40) [1] (setting [3]), 20 µM; against Aβ (1-40) peptide, more than 60 µM; on Aβ(1-40) [2] (setting [4]), 1 µM.
On to `O=C(O)c1ccccc1Nc1ccc(CCc2ccc(Cl)c(C(F)(F)F)c2)cc1` [Example 17], for which the IC50 at Aβ (1-42) was 64.5 µM; against Aβ(1-40) [1], more than 100 µM; against Aβ (1-40) peptide it was > 60 µM and 41 µM; on Aβ(1-40) [2] (read-out: BASST (IC50 = μM)), 6.2 µM.
For the compound `CCN(CC)c1ccc(CCCc2ccc(Nc3ccccc3C(=O)O)cc2)cc1` [Example 19, 2-{4-[3-(4-Diethylaminophenyl)propyl]phenylamino}benzoic acid], the half-maximal inhibitory concentration (IC50) was 31 µM and 34 µM at Aβ (1-42); > 60 µM and 43 µM on Aβ (1-40) peptide.
As to `Nc1ccc(CCCc2ccc(Nc3ccccc3C(=O)O)cc2)cc1` [Example 22, 2-{4-[3-(4-Aminophenyl)propyl]phenylamino}benzoic acid], the IC50 was more than 100 µM on Aβ (1-42), 3 µM at Aβ(1-40) [1] (setting [3]), 24 µM at Aβ (1-40) peptide and 9 µM on Aβ(1-40) [2] (setting [4]).
On to `CCN(CC)c1ccc(CCc2ccc(Nc3ccccc3C(=O)O)cc2)cc1` [Example 26, 2-{4-[2-(4-Diethylaminophenyl)ethyl]phenylamino}benzoic acid monohydrochloride monohydrate], for which the IC50 at Aβ (1-42) is more than 100 µM; on Aβ (1-40) peptide, 57 µM; at Aβ(1-40) [2] (BASST (IC50 = μM)), 1 µM.
As for `CCCN(CCC)c1cccc(CCCc2ccc(Nc3ccccc3C(=O)O)cc2)c1` [Example 27, 2-{4-[3-(3-Dipropylaminophenyl)propyl]phenylamino}benzoic acid], the IC50 was 19.8 µM against Aβ (1-42), more than 100 µM on Aβ(1-40) [1] (setting [3]), 74 µM at Aβ (1-40) peptide and 3 µM on Aβ(1-40) [2] (setting [4]).
Regarding `CCN(CC)c1ccc(CCCc2ccc(N(CC)c3ccccc3C(=O)O)cc2)cc1` [Example 30, 2-(N-{4-[3-(4-Diethylaminophenyl)propyl]phenyl}-N-ethylamino)benzoic acid], the IC50 against Aβ (1-42) was 75.3 µM; on Aβ(1-40) [1] (setting [3]) it was 30 µM and 20 µM; against Aβ (1-40) peptide, 38 µM; on Aβ(1-40) [2] (setting [4]) it was 4 µM and 2 µM.
On to `CCN(CC)c1cccc(CCCc2ccc(Nc3ccccc3C(=O)O)cc2)c1` [Example 32, 2-{4-[3-(3-Diethylaminophenyl)propyl]phenylamino}benzoic acid], for which the concentration for half-maximal inhibition (IC50) against Aβ (1-42) was 29.2 µM; on Aβ(1-40) [1] (setting [3]), more than 100 µM; on Aβ (1-40) peptide it was 96 µM; on Aβ(1-40) [2] (setting [4]) it was 1 µM.
For `CN(C)c1ccc(CCCc2ccc(Nc3ccccc3C(=O)O)cc2)cc1` [Example 34, 2-{4-[3-(4-Dimethylaminophenyl)propyl]phenylamino}benzoic acid] the same measures were 45 µM, 45 µM, 48 µM and 3 µM.
As for `Cc1ccc(CCc2ccc(Nc3ccc([N+](=O)[O-])cc3C(=O)O)cc2)cc1C` [Example 61, 2-{4-[2-(3,4-Dimethyl-phenyl)-ethyl]-phenylamino}-5-nitro-benzoic acid], the results for the IC50 against Aβ (1-42) and on Aβ (1-40) peptide were 12 µM and 13 µM, respectively.
